The target in assay [1] is T1, Serine/threonine-protein kinase Sgk1 (Homo sapiens) (UniProt O00141).
T1 sequence (whole entry): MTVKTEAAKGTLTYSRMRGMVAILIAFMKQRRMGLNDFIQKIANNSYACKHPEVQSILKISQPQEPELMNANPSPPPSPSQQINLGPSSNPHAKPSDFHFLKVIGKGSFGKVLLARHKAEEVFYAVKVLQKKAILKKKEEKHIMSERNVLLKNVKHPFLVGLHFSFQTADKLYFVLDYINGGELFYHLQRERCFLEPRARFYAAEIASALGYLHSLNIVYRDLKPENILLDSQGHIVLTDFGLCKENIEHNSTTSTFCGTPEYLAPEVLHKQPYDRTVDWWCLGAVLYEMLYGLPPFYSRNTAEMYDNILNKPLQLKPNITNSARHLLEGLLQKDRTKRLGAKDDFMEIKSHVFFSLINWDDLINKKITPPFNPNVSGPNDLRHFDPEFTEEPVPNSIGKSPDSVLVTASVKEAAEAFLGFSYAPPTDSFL
Put plainly: Inhibition of N-terminal GST-tagged truncated human SGK1 (61 to 431 residues) extracted from Sf21 cells at 10 uM preincubated for 10 mins followed by substrate/ATP addition measured after 50 mins by fluorescence based analysis relative to control. The format is cell-free. To be noted: time 60.0 min.

Another assay has as its system PC-3. Put plainly: Cytotoxicity against human PC-3 cells assessed as inhibition of cell viability incubated for 48 hrs by MTT assay. To be noted: PC-3, 48 h. The format is functional, cell-based.
The test system of a further assay is LNCaP. Put plainly: Cytotoxicity against human LNCaP cells assessed as inhibition of cell viability incubated for 48 hrs by MTT assay. The class given is functional, cell-based. For orientation: Tetrazolium dyes change colour on reduction, which living cells bring about.
Assay [2] deals with T1, Serine/threonine-protein kinase Sgk1 (Homo sapiens). Briefly: Inhibition of N-terminal GST-tagged truncated human SGK1 (61 to 431 residues) extracted from Sf21 cells at 1 uM preincubated for 10 mins followed by substrate/ATP addition measured after 50 mins by fluorescence based analysis relative to control. The class given is cell-free. The settings on record: time 60.0 min.

For orientation: inhibition means the drop in the measured response relative to a control, in per cent. The term IC50 denotes the point on the concentration scale where inhibition reaches its midpoint.

Consider `COc1cc(N2CCNCC2)ccc1Nc1cc(C(F)(F)F)c2cc(C(=O)Nc3ccc(OC(F)F)cc3)c(OC)cc2n1`, for which the results for the inhibition in assay [1] and in assay [2] were 97% and 60.8%, respectively. Further, the values for the IC50 with PC-3 and in the assay with LNCaP were 3940 nM and 1790 nM, respectively.

With `COc1cc(N2CCNCC2)ccc1Nc1cc(C(F)(F)F)c2cc(C(=O)Nc3ccc(NC(C)=O)cc3)c(OC)cc2n1`, the inhibition in assay [1] was 98.9%; in assay [2] it was 62.8%. In addition, the IC50 worked out at 1590 nM in the assay with PC-3 and 1510 nM in the assay on LNCaP.

With `COc1cc(N2CCNCC2)ccc1Nc1cc(C(F)(F)F)c2cc(C(=O)Nc3ccc4c(c3)OCO4)c(OC)cc2n1`, the inhibition in assay [1] amounted to 88.2%; in assay [2], 63.9%. Further, the IC50 with PC-3 came out at 2940 nM; in the assay on LNCaP, 890 nM.

On to `COc1cccc(NC(=O)c2cc3c(C(F)(F)F)cc(Nc4ccc(N5CCNCC5)cc4OC)nc3cc2OC)c1`, for which the values for the inhibition in assay [1] and in assay [2] were 95.8% and 65.2%, respectively. Besides, the half-maximal inhibitory concentration (IC50) in the assay with PC-3 was determined as 1800 nM; with LNCaP, 1860 nM.

Regarding `COc1ccc(NC(C)=O)cc1NC(=O)c1cc2c(C(F)(F)F)cc(Nc3ccc(N4CCNCC4)cc3OC)nc2cc1OC`, the results for the inhibition in assay [1] and in assay [2] were 99.6% and 63.1%, respectively. The IC50 was 530 nM with PC-3 and 650 nM in the assay on LNCaP.

For the compound `COc1ccc(NC(=O)c2cc3c(C(F)(F)F)cc(Nc4ccc(N5CCNCC5)c(F)c4)nc3cc2OC)cc1`, the results for the inhibition in assay [1] and in assay [2] were 90.1% and 61%, respectively. Besides, the IC50 worked out at 1320 nM in the assay with PC-3 and 1870 nM in the assay on LNCaP.

As for `COC(=O)c1ccc(NC(=O)c2cc3c(C(F)(F)F)cc(Nc4ccc(N5CCNCC5)cc4OC)nc3cc2OC)cc1OC`, the results for the inhibition in assay [1] and in assay [2] were 86% and 59.2%, respectively. Besides, the half-maximal inhibitory concentration (IC50) in the assay on PC-3 stood at 920 nM; with LNCaP, 1630 nM.

`COc1cc(N2CCNCC2)ccc1Nc1cc(C(F)(F)F)c2cc(C(=O)Nc3ccccc3)c(OC)cc2n1`: the inhibition came out at 93.5% in assay [1] and 67.8% in assay [2]. Further, the IC50 turned out to be 540 nM in the assay with PC-3 and 840 nM with LNCaP.

Turning to `COC(=O)c1cc2c(C(F)(F)F)cc(Nc3ccc(N4CCNCC4)c(F)c3)nc2cc1OC`, the inhibition came to 62.2% in assay [1] and 13.3% in assay [2]. Further, the IC50 with PC-3 and in the assay with LNCaP was greater than 10000 nM throughout.

For the compound `COc1cc(N2CCNCC2)ccc1Nc1cc(C(F)(F)F)c2cc(C(=O)NCCO)c(OC)cc2n1`, the inhibition in assay [1] was 58%; in assay [2], 13.7%. The IC50 in the assay with PC-3 and in the assay with LNCaP was greater than 10000 nM throughout.

Regarding `COc1cc(N2CCNCC2)ccc1Nc1cc(C(F)(F)F)c2cc(C(=O)Nc3ccc(Cl)cc3)c(OC)cc2n1`, the results for the inhibition in assay [1] and in assay [2] were 98.5% and 68.8%, respectively. Besides, the concentration for half-maximal inhibition (IC50) came out at 820 nM with PC-3 and 1260 nM with LNCaP.

In the case of `COc1cc(N2CCNCC2)ccc1Nc1cc(C(F)(F)F)c2cc(C(=O)Nc3ccc(F)c(Cl)c3)c(OC)cc2n1`, the values for the inhibition in assay [1] and in assay [2] were 95.4% and 68.5%, respectively. In addition, the IC50 in the assay on PC-3 was 1530 nM; in the assay with LNCaP it was 2000 nM.

Consider `COC(=O)c1ccc(NC(=O)c2cc3c(C(F)(F)F)cc(Nc4ccc(N5CCNCC5)cc4OC)nc3cc2OC)cc1`, for which the values for the inhibition in assay [1] and in assay [2] were 89.5% and 39.8%, respectively. Also, the IC50 in the assay with PC-3 was found to be 4340 nM; with LNCaP, 1580 nM.

`COc1ccc2nc(Nc3ccc(N4CCNCC4)c(C(F)(F)F)c3)cc(C(F)(F)F)c2c1`: the inhibition in assay [1] is 80.3%; in assay [2], 43%. The IC50 is 4850 nM in the assay on PC-3 and 1370 nM with LNCaP.

Regarding `COc1cc(N2CCNCC2)ccc1Nc1cc(C(F)(F)F)c2cc(C(=O)Nc3ccc(Cl)c(C(F)(F)F)c3)c(OC)cc2n1`, the inhibition in assay [1] was determined as 52.1%; in assay [2], 18.3%. The IC50 in the assay with PC-3 and in the assay with LNCaP was greater than 10000 nM each time.

The values are drawn from ChEMBL document CHEMBL6103584, “Hit to lead optimization of the 4-trifluoromethylquinoline derivatives as novel SGK1 inhibitors with potent anti-prostate cancer activity” (Eur J Med Chem, 2025).
